How the values were obtained:
[1] = molecular target: T1, BT4096 (Bacteroides thetaiotaomicron, UniProt Q8A0C5); assay: LC-MS time course of deacetylation; format: biochemical; settings: Tris-HCl 10 mM pH 7, 2.5 mM MgSO4 and Mn, 37 °C; 0-250 µM substrate
T1 sequence (Q8A0C5 21-460): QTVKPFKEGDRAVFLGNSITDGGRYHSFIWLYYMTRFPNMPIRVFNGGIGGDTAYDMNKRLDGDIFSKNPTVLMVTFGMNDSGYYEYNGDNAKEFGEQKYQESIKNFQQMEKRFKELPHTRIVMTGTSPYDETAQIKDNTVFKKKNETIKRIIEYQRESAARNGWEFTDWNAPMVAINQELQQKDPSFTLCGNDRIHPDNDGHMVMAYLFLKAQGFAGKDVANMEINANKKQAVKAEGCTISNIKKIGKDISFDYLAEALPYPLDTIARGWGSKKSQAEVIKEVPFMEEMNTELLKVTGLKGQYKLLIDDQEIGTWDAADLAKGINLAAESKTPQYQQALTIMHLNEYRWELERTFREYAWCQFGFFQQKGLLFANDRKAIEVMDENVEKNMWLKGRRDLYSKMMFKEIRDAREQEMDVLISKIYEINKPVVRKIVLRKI

[2] = molecular target: T2, BT2068 (Bacteroides thetaiotaomicron, UniProt Q8A618); assay: LC-MS drug depletion by E. coli expressing bt2068; format: cell-based; settings: whole E. coli cells, anaerobic, 37 °C
T2 sequence (Q8A618 1-253): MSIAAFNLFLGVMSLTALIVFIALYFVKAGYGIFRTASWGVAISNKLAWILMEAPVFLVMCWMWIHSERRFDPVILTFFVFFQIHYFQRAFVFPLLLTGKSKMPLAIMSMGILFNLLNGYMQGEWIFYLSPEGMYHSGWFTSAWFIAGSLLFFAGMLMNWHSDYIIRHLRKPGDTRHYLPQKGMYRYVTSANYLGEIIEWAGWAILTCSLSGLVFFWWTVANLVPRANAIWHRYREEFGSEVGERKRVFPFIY

**Q.** `CNCCN1C(=O)[C@H](OC(C)=O)[C@H](c2ccc(OC)cc2)Sc2ccccc21` [N-desmethyldiltiazem] was tested. Which “LC-MS time course of deacetylation” value [1] did it give?
**A.** BT4096 also deacetylates N-desmethyldiltiazem

**Q.** With `COc1ccc([C@@H]2Sc3ccccc3N(CCN(C)C)C(=O)[C@@H]2OC(C)=O)cc1` [diltiazem] as the compound, how does the “LC-MS time course of deacetylation” value [1] read?
**A.** demonstrated that the purified enzyme catalyzes the drug transformation (Fig. 3c)

**Q.** For `C#C[C@]1(O)CC[C@H]2[C@@H]3CCC4=CC(=O)CC[C@@H]4[C@H]3CC[C@@]21CC` [levonorgestrel], which “LC-MS drug depletion by E. coli expressing bt2068” value [2] is on record?
**A.** BT2068 also metabolizes the structurally related compounds levonorgestrel and progesterone

**Q.** `CC(=O)[C@H]1CC[C@H]2[C@@H]3CCC4=CC(=O)CC[C@]4(C)[C@H]3CC[C@]12C` [progesterone] was tested. Which “LC-MS drug depletion by E. coli expressing bt2068” value [2] did it give?
**A.** BT2068 also metabolizes the structurally related compounds levonorgestrel and progesterone

— PMC6597290 (Nature, 2019)
